Assay results published in the NIST ThermoML archive (doi:10.1021/je0503296).
± gives the expanded uncertainty stated by the source.

Details: Liquid, Vibrating object- edge clamped plate

Cc1ccccc1 [toluene]
Details	mass density, 323.15 K [kg/m3]	mass density, 373.11 K [kg/m3]	viscosity, 323.15 K [mPa·s]	viscosity, 373.11 K [mPa·s]
100 kPa	837 ± 1.7	–	0.421 ± 0.01	–
13270 kPa	–	807.3 ± 1.6	–	0.2924 ± 0.0071
13940 kPa	850.7 ± 1.7	–	0.482 ± 0.012	–
26975 kPa	–	822.5 ± 1.6	–	0.3398 ± 0.0088
27338 kPa	861.7 ± 1.7	–	0.524 ± 0.013	–
40789 kPa	–	834.2 ± 1.7	–	0.3691 ± 0.0092
41055 kPa	871.5 ± 1.7	–	0.571 ± 0.014	–
54593 kPa	880.1 ± 1.8	–	0.615 ± 0.015	–
54631 kPa	–	845 ± 1.7	–	0.419 ± 0.011
68135 kPa	888.1 ± 1.8	–	0.66 ± 0.016	–
68196 kPa	–	853.4 ± 1.7	–	0.436 ± 0.011

CCCCCCCC [octane]
Details	mass density [kg/m3]	viscosity [mPa·s]
323.15 K, 100 kPa	676 ± 1.4	0.3892 ± 0.0095
323.15 K, 10096 kPa	687.7 ± 1.4	0.44 ± 0.011
323.15 K, 20701 kPa	698.1 ± 1.4	0.495 ± 0.012
323.15 K, 30654 kPa	706.7 ± 1.4	0.53 ± 0.013
323.15 K, 41050 kPa	714.6 ± 1.4	0.576 ± 0.014
323.15 K, 54543 kPa	723.9 ± 1.4	0.633 ± 0.016
323.15 K, 68036 kPa	732.2 ± 1.5	0.693 ± 0.017
348.14 K, 100 kPa	654.3 ± 1.3	0.3011 ± 0.0081
348.14 K, 7551 kPa	664.7 ± 1.3	0.3338 ± 0.0087
348.14 K, 13680 kPa	672.2 ± 1.3	0.3513 ± 0.0088
348.14 K, 20500 kPa	679.4 ± 1.4	0.378 ± 0.01
348.14 K, 27466 kPa	686.1 ± 1.4	0.4008 ± 0.0099
348.14 K, 27469 kPa	686.1 ± 1.4	0.4 ± 0.01
348.14 K, 34305 kPa	692.1 ± 1.4	0.424 ± 0.01
348.14 K, 34314 kPa	690.8 ± 1.4	0.424 ± 0.01
348.14 K, 41226 kPa	697.9 ± 1.4	0.449 ± 0.011
348.14 K, 41227 kPa	697.8 ± 1.4	0.449 ± 0.011
348.14 K, 48070 kPa	703.1 ± 1.4	0.471 ± 0.012
348.14 K, 55000 kPa	708.2 ± 1.4	0.498 ± 0.012
348.14 K, 55004 kPa	708.1 ± 1.4	0.499 ± 0.012
348.14 K, 61992 kPa	714.2 ± 1.4	0.522 ± 0.015
348.14 K, 61994 kPa	712.8 ± 1.4	0.533 ± 0.015
373.12 K, 6723 kPa	644.7 ± 1.3	0.2757 ± 0.0067
373.12 K, 6724 kPa	644.6 ± 1.3	0.2758 ± 0.0067
373.12 K, 20592 kPa	662.9 ± 1.3	0.3205 ± 0.008
373.12 K, 20599 kPa	662.9 ± 1.3	0.3217 ± 0.0079
373.12 K, 27397 kPa	670.3 ± 1.3	0.3429 ± 0.009
373.12 K, 27402 kPa	670.4 ± 1.3	0.3429 ± 0.0089
373.12 K, 34317 kPa	677.1 ± 1.4	0.3646 ± 0.0089
373.12 K, 34324 kPa	677.2 ± 1.4	0.3649 ± 0.0089
373.12 K, 41184 kPa	683.5 ± 1.4	0.381 ± 0.01
373.12 K, 41207 kPa	683.6 ± 1.4	0.38 ± 0.01
373.12 K, 41221 kPa	683.6 ± 1.4	0.384 ± 0.01
373.12 K, 48024 kPa	689.2 ± 1.4	0.409 ± 0.01
373.12 K, 48032 kPa	689.1 ± 1.4	0.409 ± 0.01
373.12 K, 54853 kPa	694.6 ± 1.4	0.433 ± 0.011
373.12 K, 54866 kPa	694.6 ± 1.4	0.432 ± 0.011
373.12 K, 61686 kPa	699.8 ± 1.4	0.447 ± 0.011
373.12 K, 61704 kPa	699.8 ± 1.4	0.449 ± 0.011
423.09 K, 14725 kPa	620.5 ± 1.3	0.229 ± 0.013
423.09 K, 27159 kPa	638.8 ± 1.3	0.252 ± 0.016
423.09 K, 40831 kPa	655.5 ± 1.4	0.287 ± 0.019
423.09 K, 54591 kPa	668.8 ± 1.4	0.344 ± 0.021
423.09 K, 68420 kPa	676.4 ± 1.5	0.352 ± 0.029
